Patent US20250129073A1, “INHIBITOR OF RECEPTOR-INTERACTING PROTEIN KINASE 1, AND PREPARATION METHOD AND USE THEREFOR” (CHINA PHARMACEUTICAL UNIVERSITY, priority 2021, published 2025)

How the values were obtained:
U937 cells = assay: Cell anti-necroptosis activity assay (LPS + Z-VAD-FMK, CCK8); assay type: cell-based; conditions: Homo sapiens, U-937; PMA-differentiated U937, LPS 100 ng/ml + Z-VAD-FMK 20 μM, 24 h; read-out: EC50 of inhibition of necroptosis
Description: Materials: U937 cell line (human myeloid leukemia cells), RPMI 1640 medium (purchased from Gibco, USA), penicillin-streptomycin double antibody (purchased from Gibco, USA), fetal bovine serum (purchased from genetic, USA), tetradecanoylphorbol acetate (purchased from biyuntian Biotechnology Co., Ltd.), CCK8 cell proliferation detection kit (purchased from biyuntian Biotechnology Co., Ltd), Z-VAD-FMK (from APExBIO, USA) and LPS (from Sigma, USA).
U937 cells were cultured in RPMI 1640 containing 10% heat inactivated fetal bovine serum and 1% penicillin-streptomycin in a constant temperature cell incubator at 37° C. and 5% CO2, and subcultured every 1-2 days. Human monocytic cell line U937 cells could be induced to differentiate into mature monocytes/macrophages after stimulation with tetradecanoylphorbol acetate (PMA). The cells in the logarithmic growth phase were seeded in 96 well plates at a density of 4×10^4 cells/well and cultured. PMA 100 ng/ml was added for 24 h, and then the fresh medium was changed. The necroptosis model was constructed by stimulation of LPS and caspase inhibitor Z-VAD-FMK. In the experimental groups, LPS (100 ng/ml) was added for 1 hour, and then the solvent control (DMSO) or different concentrations of compounds to be tested (30 μM, 10 μM, 3 μM, 1 μM, 300 nM, 100 nM, 30 nM 7 concentrations in total) for 1 h, and then the experimental groups were treated with caspase inhibitor Z-VAD-FMK (20 μM). The cell viability was detected after 24 h of culture. The control groups were not treated with LPS, drugs and Z-VAD-FMK. No cells were added to the blank hole, only the culture medium. Each group is set with 4 parallel. CCK8 cell proliferation assay kit was used to detect the cell viability and survival rate, and the operation was carried out according to the kit instructions. The cell supernatant was added with 10 μL CCK8 detection reagent, and the cell absorbance (450 nm) was detected by a microplate reader after 0.5 h. Calculate the cell death rate (%)=(average absorbance of control well−average absorbance of experimental group)/(average absorbance of control well−average absorbance of the blank well)×100. Finally, the half effective concentration (EC50) of the drug was calculated by GraphPad Prism 7.0® software.

RIPK1 kinase = RIPK1 kinase (Homo sapiens (Human), UniProt Q13546); assay: RIPK1 kinase inhibitory assay (ADP-Glo); assay type: biochemical; conditions: for inhibition at 10 µM: 10 μM compound, read-out: Inhibition rate of RIPK1 at 10 μM (%)
Description: Materials and Instruments: ADP-Glo kinase kit (purchased from Promega), RIPK1 GST-Th-Tag (purchased from Bps Bioscience), MBP substrate (purchased from Millipore), nunc 384-well plate, ATP fluorescence analyzer Paradigm detection platform (purchased from Beckman coulter)
The compounds were diluted in DMSO and configured into a solution with a final concentration of 10 mM; Dilute RIP1 kinase from 140 ng/μL to 20 ng/μL for use. Dilute 10 mM of ATP to 100 μM for later use; Dilute 5 mg/mL of MBP to 1 mg/mL for later use. Appropriate embodiments were added into the well of the 384-well plate, 10 μl […] ATP was evenly mixed with 1 μl 1 mg/mL MB P, the mixed solution was added to the well, and 2 μL […] RIP1 kinase was added to the hole, and then incubated at room temperature for 1 h. Subsequently, 5 μL ADP-Glo reagent was added to each well and incubated at room temperature for 40 min. Then, 10 μL ADP-Glo detection reagent was added to each well and incubated at room temperature for 30 min. Finally, the RLU value (relative light unit) of each well was measured by ATP fluorometer, and each sample was repeated twice. Inhibition rate=(RLU value of blank group−RLU value of drug administration group)/RLU value of blank group×100%.

[1] = test system: rat model of ischemic stroke (MCAO); assay: Rat MCAO cerebral ischemia/reperfusion model of ischemic stroke; assay type: in vivo; conditions: tMCAO rats
Description: Animals: SPF-grade male Sprague Dawley (SD) rats (purchased from Beijing Weitonglihua Experimental Animal Technology Co., Ltd.). Rats were fed with a free diet, 12 h: 12 h circadian rhythm.
Material: 2,3,5-Triphenyltetrazolium chloride (purchased from Beijing Solebo Technology Co., Ltd.), N,N-Dimethylacetamide (purchased from Shanghai Aladdin Biochemical Technology Co., Ltd.), castor oil polyoxyethylene ether (purchased from Shanghai McLean Biochemical Technology Co., Ltd.), sodium chloride (purchased from Bioengineering (Shanghai) Co., Ltd.), isoflurane (purchased from Shenzhen ruiwode Life Technology Co., Ltd.), and Sodium dihydrogen phosphate (purchased from Sinopharm group), disodium hydrogen phosphate (purchased from Sinopharm group), paraformaldehyde (purchased from biotechnology (Shanghai) Co., Ltd.) and thread bolt (purchased from Beijing Xinong Technology Co., Ltd.).
Methods: A rat model of ischemic stroke was established by middle cerebral artery occlusion (MCAO) of cerebral ischemia/reperfusion: Healthy male SD rats (weighing 260±40 g) were anesthetized with 5% isoflurane and maintained with 1.5%-2% isoflurane. The rats were fixed in the supine position, and the right common carotid artery, internal carotid artery and external carotid artery were separated through the median neck incision and threaded for standby. The proximal end of the common carotid artery and the external carotid artery were ligated, and the internal carotid artery was clamped with an artery clamp. The suture plug was cut and inserted at about 0.5 cm from the bifurcation of the common carotid artery. The artery clamp was released, and the suture plug was delivered until the blood flow of the middle cerebral artery was blocked. After 60 minutes of ischemia, the suture plug was removed to restore blood flow. The rectal temperature was maintained at 37±0.5° C. during the operation. After 48 hours of ischemia/reperfusion, the neurological function was evaluated by modified neurological severity score (MNSs). The cerebral infarction volume was detected by TTC staining, and the brain water content was detected to evaluate the cerebral edema.

[2] = 2.5 mg/kg and 5 mg/kg bid, 48 h after ischemia/reperfusion

Chain of RIPK1 kinase (Q13546 whole entry): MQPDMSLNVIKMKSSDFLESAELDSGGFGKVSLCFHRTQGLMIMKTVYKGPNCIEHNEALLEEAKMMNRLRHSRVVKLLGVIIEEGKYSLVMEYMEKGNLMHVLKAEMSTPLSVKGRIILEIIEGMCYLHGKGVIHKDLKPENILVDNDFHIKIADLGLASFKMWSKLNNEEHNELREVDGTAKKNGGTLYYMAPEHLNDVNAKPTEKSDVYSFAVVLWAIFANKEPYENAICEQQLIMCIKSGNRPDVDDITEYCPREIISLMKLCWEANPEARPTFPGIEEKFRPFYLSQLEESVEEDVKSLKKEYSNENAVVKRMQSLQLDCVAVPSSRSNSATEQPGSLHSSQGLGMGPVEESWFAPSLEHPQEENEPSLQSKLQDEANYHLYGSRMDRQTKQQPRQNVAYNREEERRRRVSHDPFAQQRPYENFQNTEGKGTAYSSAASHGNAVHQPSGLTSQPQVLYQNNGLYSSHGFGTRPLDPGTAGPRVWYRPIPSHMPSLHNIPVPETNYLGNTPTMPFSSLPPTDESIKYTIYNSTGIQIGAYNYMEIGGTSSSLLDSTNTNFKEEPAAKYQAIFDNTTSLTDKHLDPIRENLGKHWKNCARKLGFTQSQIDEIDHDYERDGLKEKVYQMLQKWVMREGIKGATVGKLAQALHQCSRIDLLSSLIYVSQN

SMILES	EC50 (U937 cells) [nM]	IC50 (RIPK1 kinase) [nM]	inhibition at 10 µM (RIPK1 kinase) [%]	further results
Cn1ccc2ccc(C(=O)N3CCC4(CC3)CCN(Cc3cc(F)ccc3F)C4=O)cc21 [Compound 49, 2-(2,5-difluorobenzyl)-8-(1-methyl-1H-indole-6-carbonyl)-2,8-diazaspiro[4.5]decan-1-one]	1110	92	> 50	–
O=C(c1cnco1)N1CCC2(CC1)CCN(Cc1cc(F)ccc1F)C2=O [Compound 42, 2-(2,5-difluorobenzyl)-8-(oxazole-5-carbonyl)-2,8-diazaspiro[4.5]decan-1-one]	1650	1040	> 50	–
O=C(c1ccccc1)N1CCC2(CC1)CCN(Cc1cc(F)ccc1F)C2=O [Compound 34, 8-benzoyl-2-(2,5-difluorobenzyl)-2,8-diazaspiro[4.5]decan-1-one]	1340	693	> 50	–
O=C(c1ccc2cc[nH]c2c1)N1CCC2(CC1)CCN(Cc1cc(F)ccc1F)C2=O [Compound 46, 2-(2,5-difluorobenzyl)-8-(1H-indole-6-carbonyl)-2,8-diazaspiro[4.5]decan-1-one]	1200	624	> 50	–
Cn1ccc2ccc(C(=O)N3CCC4(CC3)CCN(Cc3ccccc3F)C4=O)cc21 [Compound 50, 2-(2-fluorobenzyl)-8-(1-methyl-1H-indole-6-carbonyl)-2,8-diazaspiro decan-1-one]	1560	102	> 50	–
O=C(c1ccccc1)N1CCC2(CC1)CCN(Cc1ccccc1F)C2=O [Compound 31, 8-benzoyl-2-(2-fluorobenzyl)-2,8-diazaspiro[4.5]decan-1-one]	1050	186	> 50	nerve injury score [1, 2]: significantly reduce; water content in the ischemic side [1, 2]: significantly reduce; infarct volume ([1]; 2.5 mg/kg and 5 mg/kg bid, 48 h after ischemia/reperfusion, TTC staining): significantly reduce; protective effect on cerebral ischemia injury compared with edaravone ([1]; 5 mg/kg bid vs positive control edaravone 5 mg/kg QD): stronger protective effect
O=C(c1ccc2cc[nH]c2c1)N1CCC2(CC1)CCN(Cc1ccccc1F)C2=O [Compound 44, 2-(2-fluorobenzyl)-8-(1H-indole-6-carbonyl)-2,8-diazaspiro[4.5]decan-1-one]	161	186	> 50	–
O=C(c1ccccc1)N1CCC2(CC1)N=CN(Cc1cc(F)ccc1F)C2=O [Compound 61, 8-benzoyl-3-(2,5-difluorobenzyl)-1,3,8-triazaspiro[4.5]dec-1-en-4-one]	–	–	> 50	–
O=C(c1ccccc1)N1CCC2(C=NN(Cc3cc(F)ccc3F)C2=O)CC1 [Compound 66, 8-benzoyl-2-(2,5-difluorobenzyl)-2,3,8-triazaspiro[4.5]dec-3-en-1-one]	–	–	> 50	–
CN1C(=O)C(Cc2c[nH]c3ccccc23)NC1=S (stereo not drawn) [Nec-1, reference compound]	–	1140	–	–
O=C(c1ccccc1)N1CCC2(CC1)CCN(CC1CCCC1)C2=O [Compound 12, 8-benzoyl-2-(cyclopentylmethyl)-2,8-diazaspiro[4.5]decan-1-one]	–	–	> 50	–
N#Cc1ccc(CN2CCC3(CCN(C(=O)c4ccccc4)CC3)C2=O)c(F)c1 [Compound 48, 4-((8-benzoyl-1-oxo-2,8-diazaspiro[4.5]decan-2-yl)methyl)-3-fluorobenzonitrile]	–	–	8	–
N#Cc1ccc(F)cc1CN1CCC2(CCN(C(=O)c3ccccc3)CC2)C1=O [Compound 57, 2-((8-benzoyl-1-oxo-2,8-diazaspiro[4.5]decan-2-yl)methyl)-4-fluorobenzonitrile]	–	–	25	–
O=C(c1ccccc1)N1CCC2(CC1)CCN(Cc1ccc(Cl)cc1F)C2=O [Compound 39, 8-benzoyl-2-(4-chloro-2-fluorobenzyl)-2,8-diazaspiro[4.5]decan-1-one]	–	–	> 50	–
O=C(c1ccc2cc[nH]c2c1)N1CCC2(CC1)CCN(Cc1ccccc1)C2=O [Compound 25, 2-benzyl-8-(1H-indole-6-carbonyl)-2,8-diazaspiro[4.5]decan-1-one]	–	–	> 50	–
O=C(c1ccccc1)N1CCC2(C=NN(Cc3cc(F)cc(F)c3)C2=O)CC1 [Compound 67, 8-benzoyl-2-(3,5-difluorobenzyl)-2,3,8-triazaspiro[4.5]dec-3-en-1-one]	–	–	> 50	–
O=C(c1cscn1)N1CCC2(CC1)CCN(Cc1cc(F)ccc1F)C2=O [Compound 75, 2-(2,5-difluorobenzyl)-8-(thiazole-4-carbonyl)-2,8-diazaspiro [4.5]decan-1-one]	–	–	> 50	–
Cn1ccc2ccc(C(=O)N3CCC4(CC3)CCN(Cc3ccccc3)C4=O)cc21 [Compound 29, 2-benzyl-8-(1-methyl-1H-indole-6-carbonyl)-2,8-diazaspiro[4.5]decan-1-one]	–	–	> 50	–
